Assays:
[1] = target: T1, human glioblastoma A172 cells, naturally expressing hTDO2 (Homo sapiens, UniProt P48775); assay: Cellular assay for TDO2 activity, A172 cells; type: cell-based; settings: overnight incubation, kynurenine in supernatant
T1 construct: human glioblastoma A172 cells, naturally expressing hTDO2; endogenous in cells; host or cells: human glioblastoma A172 cells (ATCC CRL-1620)
Outline: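 A172 human glioblastoma cells naturally expressing TDO2, seeded at 1.25×10^4 cells/well, were incubated overnight at 37 °C in IMDM with 2% FBS and ten serial compound concentrations. Supernatant kynurenine, after TCA precipitation and Ehrlich's reagent, was read at 480 nm against a kynurenine standard curve; data curve-fitted.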

[2] = target: T2, human recombinant TDO2 enzyme (Homo sapiens, UniProt P48775); assay: Assay for TDO2 enzymatic activity determination; type: biochemical; settings: human recombinant TDO2, L-Trp 1 mM, kynurenine absorbance at 480 nm
T2 construct: made in house
Description: To measure the TDO2 activity, the procedure described in Dolusic et al. J. Med. Chem.; 2011, 54, […] was adapted: the reaction mixture contained (final concentrations) potassium phosphate buffer (50 mM, pH 7.5), ascorbic acid (0.25 M), methylene blue (0.125 μM), catalase (40 units/mL, from bovine liver, Sigma), and human recombinant TDO2 enzyme (prepared as described in Dolusic et al. J. Med. Chem.; 2011, 54, 5320-5334; 0.9 μg) without or with the compounds of the present invention at the indicated concentrations (total volume 112.5 μL). The reaction was initiated by the addition of 37.5 μL of L-Trp (final concentration 1 mM) at room temperature. The reaction was conducted at room temperature during one hour and stopped by the addition of 30 μL of 30% (w/v) trichloroacetic acid.
To convert N-formylkynurenine into kynurenine, the reaction mixture was incubated at 65° C. for 30 min. Then 150 μL of the reaction mixture was mixed with 120 μL of 2.5% (w/v) 4-(dimethylamino)-benzaldehyde in acetic acid and incubated for 5 min at room temperature. Kynurenine concentrations were determined by measuring the absorbance at 480 nm. A standard curve was made with pure kynurenine. The TDO activity was measured as described above using ten serial concentrations of the compounds of the present invention. Data were fitted using the Prism™ software (GraphPad Software, Inc.) using standard parameters.

[3] = target: T3, murine mastocytoma P815 cells overexpressing hTDO2 (Homo sapiens, UniProt P48775); assay: Cellular assay for TDO2 activity, hTDO2-overexpressing P815 cells; type: cell-based; settings: P815 cells overexpressing hTDO2, overnight incubation, kynurenine in supernatant
T3 construct: expressed in transfected cells; host or cells: murine mastocytoma P815 cells
Description: The assay (adapted from Pilotte L et al., Proc Natl Acad Sci USA, 2012, 109(7), 2497-502) was performed in 96-well flat bottom plates seeded with murine mastocytoma P815 cells overexpressing hTDO2 (prepared as described in Pilotte et al., PNAS, 2012, 109(7), 2497-2502), at a concentration of 5×10^4 cells/well in a final volume of 200 μL. To determine TDO or IDO activity, the cells were incubated overnight at 37° C. at 5% CO2 in IMDM (Invitrogen) supplemented with 2% FBS and 2% penicillin/streptomycin in the presence of the compounds of the present invention, at different concentrations. The cells may be obtained from the American Type Cuylture Collecion [ATCC® TIB-64™ or commercially, e.g., from Sigma-Aldrich or Life Technologies.]
The plates were then centrifuged 5 min at 1000 rpm, and 100 μL of the supernatant were collected in a conical plate, 30 uL of TCA 30% were added and a further centrifugated at 3000×g for 10 minutes. 100 μL of the supernatant were collected in a flat bottomed plate and 100 μL of 2% (w/v) 4-(dimethylamino)-benzaldehyde in acetic acid and incubated for 5 min at room temperature. Kynurenine concentrations were determined by measuring the absorbance at 480 nm. A standard curve was made with pure kynurenine. The TDO activity was measured as described above using ten serial concentrations of the compounds of the present invention. Data were fitted using the Prism™ software (GraphPad Software, Inc.) using standard parameters.

TDO2 = assay: Pharmacodynamic assay for TDO2 in vivo activity: increase of blood Tryptophan levels in mice; set-up: species or system mouse; settings: female BALB/c mice, 2 hours; for increase of circulating Tryptophan compared to vehicle-treated controls: p<0.0001
Description: The compounds of the present invention increase the amount of Tryptophan in mouse blood. Briefly, female BALB/c mice (7-8 weeks old) were treated with either a suspension of one of the compounds of the present invention in 0.5% hydroxypropyl methyl cellulose (HPMC) K4M (4000 mPa·s (cPs), Methocell™, Dow chemical)/0.25% Tween® 20 (Signma Aldrich) at different doses (30, 60 and 100 mg/kg), or with a vehicle control (0.5% HPMC K4M/0.25% Tween 20), by the oral route by gavage (dosing volume 5 mL/kg, 10 mice per group). After two hours, blood was harvested, plasma was prepared and the amount of Tryptophan present was determined by LC-MS-MS (HPLC column Unison UK-Phenyl, 75×4.6, 3 μm, flow rate 0.8 mL/min, 8 minutes gradient from 95% water+0.1% formic acid/5% Acetonitrile+0.1% formic acid to 5% water+0.1% formic acid/95% Acetonitrile+0.1% formic acid, retention time 2.4 min; API4000 MS-MS system from AB Sciex, ESI+ mode, parent ion 205.1, daughter ion 146.1).

T3 sequence (P48775 whole entry): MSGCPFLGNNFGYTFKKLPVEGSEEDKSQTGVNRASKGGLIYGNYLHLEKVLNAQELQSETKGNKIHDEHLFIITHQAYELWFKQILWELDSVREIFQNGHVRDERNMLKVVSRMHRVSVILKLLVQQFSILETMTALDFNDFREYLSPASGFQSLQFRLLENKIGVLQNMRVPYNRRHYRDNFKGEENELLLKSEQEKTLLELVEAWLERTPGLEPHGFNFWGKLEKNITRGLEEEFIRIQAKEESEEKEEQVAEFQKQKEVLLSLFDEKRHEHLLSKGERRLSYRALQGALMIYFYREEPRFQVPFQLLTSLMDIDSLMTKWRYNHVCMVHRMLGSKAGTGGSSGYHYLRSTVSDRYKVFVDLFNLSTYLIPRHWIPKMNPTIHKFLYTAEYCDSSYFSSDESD
T2 sequence (P48775 whole entry): as above
T1 sequence (P48775 whole entry): as above

Fc1ccc2c(-c3ccc4cn[nH]c4c3)c[nH]c2c1 [Compound 1, 6-(6-fluoro-1H-indol-3-yl)-1H-indazole] showed an IC50 [1] of 178 nM, an IC50 [2] of 586 nM and an IC50 [3] of 154 nM.

Compound Cc1nc2cc(-c3c[nH]c4cc(F)ccc34)ccc2[nH]1 [Compound 26, 5-(6-fluoro-1H-indol-3-yl)-2-methyl-1H-benzo[d]imidazole] has an IC50 [2] of 388 nM and an IC50 [3] of 150 nM.

In the case of CN1CCN(Cc2nc3ccc(-c4c[nH]c5cc(F)ccc45)cc3o2)CC1 [Compound 68, 6-(6-fluoro-1H-indol-3-yl)-2-((4-methylpiperazin-1-yl)methyl)benzo[d]oxazole], the IC50 [1] is reported as 218 nM and the IC50 [3] is reported as 78 nM.

In the case of CS(=O)(=O)NCc1nc2cc(-c3c[nH]c4cc(F)ccc34)ccc2o1 [Compound 70, N-((5-(6-fluoro-1H-indol-3-yl)benzo[d]oxazol-2-yl)methyl)methanesulfonamide], the IC50 [1] is reported as 435 nM and the IC50 [3] is reported as 251 nM.

CS(=O)(=O)NCc1nc2ccc(-c3c[nH]c4cc(F)ccc34)cc2o1 [Compound 74, N-((6-(6-fluoro-1H-indol-3-yl)benzo[d]oxazol-2-yl)methyl)methanesulfonamide] gave an IC50 [1] of 152 nM and an IC50 [3] of 72 nM.

CC(=O)NCc1nc2ccc(-c3c[nH]c4cc(F)ccc34)cc2o1 [Compound 75, N-((6-(6-fluoro-1H-indol-3-yl)benzo[d]oxazol-2-yl)methyl)acetamide] showed an IC50 [1] of 143 nM and an IC50 [3] of 92 nM.

In the case of Fc1ccc2c(-c3ccc4nn(CC5CCNCC5)cc4c3)c[nH]c2c1 [Compound 77, 5-(6-fluoro-1H-indol-3-yl)-2-(piperidin-4-ylmethyl)-2H-indazole], the IC50 [1] is reported as 265 nM and the IC50 [3] is reported as 246 nM.

Fc1ccc2c(-c3ccc4nc(CN5CCNCC5)oc4c3)c[nH]c2c1 [Compound 78, 6-(6-fluoro-1H-indol-3-yl)-2-(piperazin-1-ylmethyl)benzo[d]oxazole] gave an IC50 [1] of 149 nM and an IC50 [3] of 82 nM.

For Fc1ccc2c(-c3ccc4nc(CCN5CCNCC5)oc4c3)c[nH]c2c1 [Compound 110, 6-(6-fluoro-1H-indol-3-yl)-2-(2-(piperazin-1-yl)ethyl)benzo[d]oxazole], the IC50 [1] was 239 nM, the IC50 [2] was 1630 nM and the “Tryptophan concentration in plasma (average ± standard error of the mean)” value (TDO2; 30 mg/kg oral gavage) was 125 ± 7 µM. For the same compound, the “increase of circulating Tryptophan compared to vehicle-treated controls” value (from here on “increase of circulating Tryptophan”) (TDO2; 30 mg/kg oral gavage) was 46%, the “Tryptophan concentration in plasma (average ± standard error of the mean)” value (TDO2; 60 mg/kg oral gavage) was 130.3 µM and the “increase of circulating Tryptophan” value (TDO2; 60 mg/kg oral gavage) was 52%. The “Tryptophan concentration in plasma (average ± standard error of the mean)” value (TDO2; 100 mg/kg oral gavage) was 153.2 µM and the “increase of circulating Tryptophan” value (TDO2; 100 mg/kg oral gavage) was 78%.

Source: patent US20150266857A1, “NOVEL 3-INDOL SUBSTITUTED DERIVATIVES, PHARMACEUTICAL COMPOSITIONS AND METHODS FOR USE” (iTeos Therapeutics, priority 2014, published 2015)
